In PubChem BioAssay (NCI):
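How tested: cells in 96-well plates exposed to compound for 48 hours at five concentrations. The concentration for full growth arrest is given as TGI.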

Assays:
Assay in all cases: NCI-60 cell line screen, 48 h
HL-60(TB) leukemia = test system: HL-60(TB) leukemia
OVCAR-3 ovarian = test system: OVCAR-3 ovarian
SK-MEL-28 melanoma = test system: SK-MEL-28 melanoma
EKVX NSCLC = test system: EKVX NSCLC
SW-620 colon = test system: SW-620 colon
ACHN renal = test system: ACHN renal
K-562 leukemia = test system: K-562 leukemia
HT29 colon = test system: HT29 colon
RPMI-8226 leukemia = test system: RPMI-8226 leukemia
NCI-H522 lung = test system: NCI-H522 lung
HOP-18 NSCLC = test system: HOP-18 NSCLC
OVCAR-8 ovarian = test system: OVCAR-8 ovarian
HOP-62 NSCLC = test system: HOP-62 NSCLC
RXF 393 renal = test system: RXF 393 renal
HCC-2998 colon = test system: HCC-2998 colon
UACC-62 melanoma = test system: UACC-62 melanoma
CCRF-CEM leukemia = test system: CCRF-CEM leukemia
DLD-1 colon = test system: DLD-1 colon
SNB-19 CNS = test system: SNB-19 CNS
OVCAR-4 ovarian = test system: OVCAR-4 ovarian
MALME-3M melanoma = test system: MALME-3M melanoma
786-0 renal = test system: 786-0 renal
SNB-75 CNS = test system: SNB-75 CNS
HCT-15 colon = test system: HCT-15 colon
TK-10 renal = test system: TK-10 renal
SR leukemia = test system: SR leukemia
CAKI-1 renal = test system: CAKI-1 renal
NCI-H23 lung = test system: NCI-H23 lung
OVCAR-5 ovarian = test system: OVCAR-5 ovarian
UO-31 renal = test system: UO-31 renal
M14 melanoma = test system: M14 melanoma
COLO 205 colon = test system: COLO 205 colon
DMS 273 small cell lung = test system: DMS 273 small cell lung
SF-539 CNS = test system: SF-539 CNS
M19-MEL melanoma = test system: M19-MEL melanoma
SK-MEL-5 melanoma = test system: SK-MEL-5 melanoma
U251 CNS = test system: U251 CNS
HCT-116 colon = test system: HCT-116 colon
LOX IMVI melanoma = test system: LOX IMVI melanoma
HOP-92 NSCLC = test system: HOP-92 NSCLC
UACC-257 melanoma = test system: UACC-257 melanoma
NCI-H226 lung = test system: NCI-H226 lung
LXFL 529 NSCLC = test system: LXFL 529 NSCLC
A549 NSCLC = test system: A549 NSCLC
NCI-H460 lung = test system: NCI-H460 lung
KM20L2 colon = test system: KM20L2 colon
KM12 colon = test system: KM12 colon
SF-295 CNS = test system: SF-295 CNS
SF-268 CNS = test system: SF-268 CNS
MOLT-4 leukemia = test system: MOLT-4 leukemia
SK-OV-3 ovarian = test system: SK-OV-3 ovarian
SN12C renal = test system: SN12C renal
SNB-78 CNS = test system: SNB-78 CNS
XF 498 CNS = test system: XF 498 CNS
SK-MEL-2 melanoma = test system: SK-MEL-2 melanoma
A498 renal = test system: A498 renal
IGROV1 ovarian = test system: IGROV1 ovarian
DMS 114 small cell lung = test system: DMS 114 small cell lung

Measured: TGI

CCOc1ccc(NCC(=O)N2CC(=O)Nc3ccccc32)cc1
not listed: A498 renal | IGROV1 ovarian | DMS 114 small cell lung
> 100 µM: all other assays above

CC(=O)Nc1ccc(-c2nnc(SCC(=O)Nc3ccccc3Cl)o2)cc1
not listed: EKVX NSCLC | RPMI-8226 leukemia | UACC-62 melanoma | SR leukemia | HOP-92 NSCLC | XF 498 CNS
> 100 µM: all other assays above

O=C(O)Cc1cc(=O)oc2cc(O)c(Cl)cc12
not listed: RXF 393 renal | SR leukemia | UO-31 renal | UACC-257 melanoma | SNB-78 CNS
> 100 µM: all other assays above

CC(=O)/C=C1/c2ccccc2N(C(C)=O)C1O (centres undefined)
not listed: NCI-H522 lung | MALME-3M melanoma | TK-10 renal | OVCAR-5 ovarian | SK-MEL-5 melanoma | LOX IMVI melanoma | NCI-H226 lung | SF-268 CNS | XF 498 CNS
> 100 µM: all other assays above
